Results as given in ChEMBL document CHEMBL1144926, “Structure-activity relationships of dynorphin a analogues modified in the address sequence” (J Med Chem, 2003).
Non-standard residues stand in square brackets, D forms with d. Residues, ends and D or L forms follow the SMILES beside them. Nle = CCCC[C@H](N)C(=O)O

Columns and labels:
[1] = target: T1, Kappa-type opioid receptor (Homo sapiens, UniProt P41145); test: biochemical; assay type: cell-based, CHO
[2] = target: Mu-type opioid receptor (Homo sapiens, UniProt P35372); test: biochemical; assay type: cell-based, CHO
[3] = target: Delta-type opioid receptor (Homo sapiens, UniProt P41143); test: In vitro binding affinity to human Opioid receptor delta 1 on CHO cell membranes using [3H]diprenorphine displacement.
[4] = target: T2, Opioid receptors; mu/kappa/delta (Homo sapiens) (UniProt P41145+P41143+P35372); test: Binding affinity towards human kappa,mu,delta receptors was calculated as the ratio; 1/34/69; assay type: protein assay
[5] = target: Mu-type opioid receptor (Cavia porcellus) (UniProt P97266); settings: Ileum
[6] = target: T1, Kappa-type opioid receptor; test: Antagonistic activity in the Opioid receptor kappa 1 -mediated [35S]GTP-gamma-S, binding assay against 50 nM U-50,488; assay type: functional
[7] = target: T1, Kappa-type opioid receptor; assay type: functional
[8] = target: T2, Opioid receptors; mu/kappa/delta (Homo sapiens); test: Binding affinity towards human kappa,mu,delta receptors was calculated as the ratio; 1/560/1200; assay type: protein assay
[9] = target: T1, Kappa-type opioid receptor; test: Antagonistic activity in theOpioid receptor kappa 1 -mediated [35S]GTP-gamma-S, binding assay against 50 nM U-50,488; assay type: functional
[10] = target: T2, Opioid receptors; mu/kappa/delta (Homo sapiens); test: Binding affinity towards human kappa,mu,delta receptors was calculated as the ratio; 1/360/360; assay type: protein assay
[11] = target: T1, Kappa-type opioid receptor; settings: 10 uM
[12] = target: T2, Opioid receptors; mu/kappa/delta (Homo sapiens); test: Binding affinity towards human kappa,mu,delta receptors was calculated as the ratio; 1/620/1300; assay type: protein assay
[13] = target: T2, Opioid receptors; mu/kappa/delta (Homo sapiens); test: Binding affinity towards human kappa,mu,delta receptors was calculated as the ratio; 1/3.4/2.3; assay type: protein assay

Sequence of Delta-type opioid receptor (P41143 whole entry): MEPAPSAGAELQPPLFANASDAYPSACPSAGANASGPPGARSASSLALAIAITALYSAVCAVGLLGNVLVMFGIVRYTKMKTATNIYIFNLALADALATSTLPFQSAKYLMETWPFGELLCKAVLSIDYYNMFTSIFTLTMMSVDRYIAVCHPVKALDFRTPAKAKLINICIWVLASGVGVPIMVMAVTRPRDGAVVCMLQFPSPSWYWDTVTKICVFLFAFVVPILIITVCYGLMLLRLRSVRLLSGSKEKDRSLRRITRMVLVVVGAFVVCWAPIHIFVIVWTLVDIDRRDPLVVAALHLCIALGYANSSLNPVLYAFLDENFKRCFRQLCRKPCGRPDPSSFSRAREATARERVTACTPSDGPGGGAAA
T2 sequence (P35372 whole entry, looked up): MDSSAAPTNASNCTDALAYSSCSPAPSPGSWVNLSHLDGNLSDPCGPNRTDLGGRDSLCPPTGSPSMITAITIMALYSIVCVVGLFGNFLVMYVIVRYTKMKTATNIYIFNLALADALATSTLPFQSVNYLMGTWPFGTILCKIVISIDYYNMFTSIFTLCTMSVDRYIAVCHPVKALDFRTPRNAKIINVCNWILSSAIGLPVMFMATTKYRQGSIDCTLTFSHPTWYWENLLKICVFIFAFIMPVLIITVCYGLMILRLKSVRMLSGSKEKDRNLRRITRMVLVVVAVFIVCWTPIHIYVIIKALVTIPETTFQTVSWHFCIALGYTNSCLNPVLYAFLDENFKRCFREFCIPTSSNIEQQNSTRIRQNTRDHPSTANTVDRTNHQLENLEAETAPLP
T2 sequence (P41143 whole entry, looked up): as the sequence (P41143 whole entry) above
T2 sequence (P41145 whole entry, looked up): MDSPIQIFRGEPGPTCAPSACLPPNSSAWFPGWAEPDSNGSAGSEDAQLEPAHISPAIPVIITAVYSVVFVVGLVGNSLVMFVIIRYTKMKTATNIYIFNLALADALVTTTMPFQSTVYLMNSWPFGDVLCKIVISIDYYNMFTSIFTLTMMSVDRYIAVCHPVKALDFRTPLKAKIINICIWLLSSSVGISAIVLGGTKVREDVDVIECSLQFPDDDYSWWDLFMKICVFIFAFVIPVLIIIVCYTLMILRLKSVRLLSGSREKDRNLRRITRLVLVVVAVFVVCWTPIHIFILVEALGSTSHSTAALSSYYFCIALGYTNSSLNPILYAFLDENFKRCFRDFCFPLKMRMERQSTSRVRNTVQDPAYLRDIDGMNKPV
Sequence of Mu-type opioid receptor (P35372 whole entry): as the sequence (P35372 whole entry, looked up) above
Sequence of Mu-type opioid receptor (Cavia porcellus) (P97266 whole entry): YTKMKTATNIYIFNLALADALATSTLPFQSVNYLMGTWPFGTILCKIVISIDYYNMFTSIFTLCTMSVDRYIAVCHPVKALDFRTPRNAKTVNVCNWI
T1 sequence (P41145 whole entry): as the sequence (P41145 whole entry, looked up) above

Row | Compound | Ki [1] [nM] | Ki [2] [µM] | Ki [3] [µM] | further results
1 | CC[C@H](C)[C@H](NC(=O)[C@H](CCCNC(=N)N)NC(=O)[C@H](CCCNC(=N)N)NC(=O)[C@H](CC(C)C)NC(=O)[C@H](Cc1ccccc1)NC(=O)[C@@H]1CCCN1C(=O)CNC(=O)[C@@H](N)Cc1ccc(O)cc1)C(=O)N[C@@H](CCCNC(=N)N)C(=O)N1CCC[C@H]1C(=O)N[C@@H](CCCCN)C(=O)O |  |  |  | Ki ([1]; cho): 41.7 nM; Ki ([2]; cho): 15.1 µM; Ki ([3]; cho): 15 µM
2 | CCCC[C@H](NC(=O)[C@H](CC(C)C)NC(=O)[C@H](Cc1ccccc1)NC(=O)[C@@H]1CCCN1C(=O)CNC(=O)[C@@H](N)Cc1ccc(O)cc1)C(=O)N[C@@H](CCCN=C(N)N)C(N)=O (H-YGPFL[Nle]R-NH2) | > 100000 | > 100 | 14.1 | 
3 | CC(C)C[C@H](NC(=O)[C@H](Cc1ccccc1)NC(=O)CNC(=O)CNC(=O)[C@@H](N)Cc1ccc(O)cc1)C(=O)N[C@@H](CCCNC(=N)N)C(=O)N[C@@H](CCCNC(=N)N)C(=O)O |  | 0.038 | 0.0097 | 
4 | H-YGGFLRRIR-OH | 2.5 | 0.0238 | 0.0098 | 
5 | CC[C@H](C)[C@H](NC(=O)[C@H](CCCN=C(N)N)NC(=O)[C@H](CCCN=C(N)N)NC(=O)[C@H](CC(C)C)NC(=O)[C@H](Cc1ccccc1)NC(=O)CNC(=O)CNC(=O)[C@@H](N)Cc1ccc(O)cc1)C(=O)N[C@@H](CCCN=C(N)N)C(=O)N1CCC[C@@H]1C(=O)O |  |  |  | Ki ratio [4]: kappa/mu/delta
6 | CC[C@H](C)[C@H](NC(=O)[C@H](CCCN=C(N)N)NC(=O)[C@H](CCCN=C(N)N)NC(=O)[C@H](CC(C)C)NC(=O)[C@H](Cc1ccccc1)NC(=O)[C@@H]1CCCN1C(=O)CNC(=O)[C@@H](N)Cc1ccc(O)cc1)C(=O)N[C@@H](CCCN=C(N)N)C(=O)N1CCC[C@@H]1C(=O)N[C@@H](CCCCN)C(N)=O |  |  |  | Ke [5]: 494 nM
7 | H-YGPFLRRI-NH2 | 79.4 | 16.2 | 16.2 | 
8 | H-YGPFL-NH2 | > 10000 | 15.5 | 18.6 | 
9 | CC(C)C[C@H](NC(=O)[C@H](Cc1ccccc1)NC(=O)[C@@H]1CCCN1C(=O)CNC(=O)[C@@H](N)Cc1ccc(O)cc1)C(=O)N[C@@H](CCCN=C(N)N)C(=O)N[C@@H](CCCN=C(N)N)C(=O)N[C@@H](CCCN=C(N)N)C(=O)N[C@@H](CCCN=C(N)N)C(=O)N1CCC[C@@H]1C(=O)N[C@@H](CCCCN)C(N)=O |  |  |  | Ke [5]: 280 nM
10 | CC(C)C[C@H](NC(=O)[C@H](Cc1ccccc1)NC(=O)[C@@H]1CCCN1C(=O)CNC(=O)[C@@H](N)Cc1ccc(O)cc1)C(=O)N[C@@H](CCCN=C(N)N)C(=O)N[C@@H](CCCN=C(N)N)C(=O)N[C@@H](CCCN=C(N)N)C(N)=O | 6.61 | 3.1 | > 100 | IC50 [6]: 4 µM
11 | CC[C@H](C)[C@H](NC(=O)[C@H](CCCNC(=N)N)NC(=O)[C@H](CCCNC(=N)N)NC(=O)[C@H](CC(C)C)NC(=O)[C@H](Cc1ccccc1)NC(=O)[C@@H]1CCCN1C(=O)CNC(=O)[C@@H](N)Cc1ccc(O)cc1)C(=O)N[C@@H](CCCNC(=N)N)C(=O)N[C@@H](CCCNC(=N)N)C(N)=O |  |  |  | IC50 [7]: 1.26 µM; Ki ([1]; cho): 3.39 nM; Ki ([2]; cho): 2.34 µM; Ki ([3]; cho): 6.03 µM
12 | H-YGGFLR-OH | 404 | 0.0406 | 0.0091 | 
13 | CC[C@H](C)[C@H](NC(=O)[C@H](CCCNC(=N)N)NC(=O)[C@H](CCCNC(=N)N)NC(=O)[C@H](CC(C)C)NC(=O)[C@H](Cc1ccccc1)NC(=O)CNC(=O)CNC(=O)[C@@H](N)Cc1ccc(O)cc1)C(=O)N[C@@H](CCCNC(=N)N)C(=O)N1CCC[C@H]1C(=O)O | 0.35 | 0.0119 | 0.024 | 
14 | CC[C@H](C)[C@H](NC(=O)[C@H](CCCNC(=N)N)NC(=O)[C@H](CCCNC(=N)N)NC(=O)[C@H](CC(C)C)NC(=O)[C@H](Cc1ccccc1)NC(=O)CNC(=O)CNC(=O)[C@@H](N)Cc1ccc(O)cc1)C(=O)N[C@@H](CCCNC(=N)N)C(=O)N1CCC[C@H]1C(=O)N[C@@H](CCCCN)C(=O)N[C@@H](CC(C)C)C(=O)N[C@@H](CCCCN)C(=O)O | 0.23 |  |  | 
15 | H-YGPFLRRIR-NH2 | 10.7 | 6.03 | 13.2 | Ki ratio [8]: kappa/delta/mu
16 | CC[C@H](C)[C@H](NC(=O)[C@H](CCCNC(=N)N)NC(=O)[C@H](CCCNC(=N)N)NC(=O)[C@H](CC(C)C)NC(=O)[C@H](Cc1ccccc1)NC(=O)[C@@H]1CCCN1C(=O)CNC(=O)[C@@H](N)Cc1ccc(O)cc1)C(=O)N[C@@H](CCCNC(=N)N)C(=O)N1CCC[C@H]1C(=O)N[C@@H](CCCCN)C(N)=O | 2.4 | 5.25 |  | IC50 [9]: 0.44 µM
17 | CC(C)C[C@H](NC(=O)[C@H](Cc1ccccc1)NC(=O)[C@@H]1CCCN1C(=O)CNC(=O)[C@@H](N)Cc1ccc(O)cc1)C(=O)N[C@@H](CCCNC(=N)N)C(=O)N[C@@H](CCCNC(=N)N)C(=O)N[C@@H](CCCNC(=N)N)C(=O)N[C@@H](CCCNC(=N)N)C(=O)N1CCC[C@H]1C(=O)N[C@@H](CCCCN)C(N)=O |  |  |  | IC50 [7]: 0.34 µM; Ki ([1]; cho): 0.44 nM; Ki ([2]; cho): 2.75 µM; Ki ([3]; cho): 6.76 µM
18 | H-YGPFLRR-NH2 | 60.3 | 12.6 | 15.1 | 
19 | Oc1ccc2c3c1O[C@H]1c4[nH]c5c(c4C[C@@]4(O)[C@@H](C2)N(CC2CC2)CC[C@]314)C[C@@]1(O)[C@H]2Cc3ccc(O)c4c3[C@@]1(CCN2CC1CC1)[C@H]5O4 |  |  |  | Ke [5]: 0.572 nM
20 | CC[C@H](C)[C@H](NC(=O)[C@H](CCCN=C(N)N)NC(=O)[C@H](CCCN=C(N)N)NC(=O)[C@H](CC(C)C)NC(=O)[C@H](Cc1ccccc1)NC(=O)[C@@H]1CCCN1C(=O)CNC(=O)[C@@H](N)Cc1ccc(O)cc1)C(=O)N[C@@H](CCCN=C(N)N)C(=O)N1CCC[C@@H]1C(=O)N[C@@H](CCCCN)C(=O)O |  |  |  | Ki ratio [10]: kappa/mu/delta
21 | CC[C@H](C)[C@H](NC(=O)[C@H](CCCNC(=N)N)NC(=O)[C@H](CCCNC(=N)N)NC(=O)[C@H](CC(C)C)NC(=O)[C@H](Cc1ccccc1)NC(=O)[C@@H]1CCCN1C(=O)CNC(=O)[C@@H](N)Cc1ccc(O)cc1)C(=O)N[C@@H](CCCNC(=N)N)C(=O)N[C@@H](CCCNC(=N)N)C(=O)N[C@@H](CCCCN)C(N)=O |  |  |  | IC50 [7]: 0.41 µM; Ki ([1]; cho): 1.2 nM; Ki ([2]; cho): 1.66 µM; Ki ([3]; cho): 3.23 µM
22 | H-YGPFLR-NH2 [listing 1 of 2 here] | 5600 | 19.5 | 12.6 | 
23 | CC[C@H](C)[C@H](NC(=O)[C@H](CCCN=C(N)N)NC(=O)[C@H](CCCN=C(N)N)NC(=O)[C@H](CC(C)C)NC(=O)[C@H](Cc1ccccc1)NC(=O)CNC(=O)CNC(=O)[C@@H](N)Cc1ccc(O)cc1)C(=O)N[C@@H](CCCN=C(N)N)C(=O)N1CCC[C@H]1C(=O)N[C@@H](CCCCN)C(N)=O | 0.059 |  |  | Max stimulation [11]: 73%
24 | CC[C@H](C)[C@H](NC(=O)[C@H](CCCN=C(N)N)NC(=O)[C@H](CCCN=C(N)N)NC(=O)[C@H](CC(C)C)NC(=O)[C@H](Cc1ccccc1)NC(=O)[C@@H]1CCCN1C(=O)CNC(=O)[C@@H](N)Cc1ccc(O)cc1)C(=O)N[C@@H](CCCN=C(N)N)C(=O)N1CCC[C@H]1C(N)=O |  |  |  | Ki ([1]; cho): 10 nM; Ki ([2]; cho): 6.2 µM; Ki ([3]; cho): 13.5 µM
25 | CC[C@H](C)[C@H](NC(=O)[C@H](CCCN=C(N)N)NC(=O)[C@H](CCCN=C(N)N)NC(=O)[C@H](CC(C)C)NC(=O)[C@H](Cc1ccccc1)NC(=O)[C@@H]1CCCN1C(=O)CNC(=O)[C@@H](N)Cc1ccc(O)cc1)C(=O)N[C@@H](CCCN=C(N)N)C(=O)N1CCC[C@@H]1C(N)=O |  |  |  | Ki ratio [12]: kappa/mu/delta
26 | H-YGPFLR-NH2 [listing 2 of 2 here] |  |  |  | Ki ratio [13]: kappa/delta/mu
27 | CC[C@H](C)[C@H](NC(=O)[C@H](CCCN=C(N)N)NC(=O)[C@H](CCCN=C(N)N)NC(=O)[C@H](CC(C)C)NC(=O)[C@H](Cc1ccccc1)NC(=O)CNC(=O)CNC(=O)[C@@H](N)Cc1ccc(O)cc1)C(=O)O |  | 0.0354 |  | 
